Source: patent US11007162B2, “Methods of reducing small, dense LDL particles” (CymaBay Therapeutics, Inc., priority 2008, dated 2021)

Columns and labels:
overweight subjects = assay: Second clinical study: LDL particle size pattern and blood chemistry in overweight subjects; type: in vivo, human
Description: A second clinical study to determine the effect of the Compound of Formula II on LDL particle size in overweight subjects was performed. Subjects in this study met the following criteria: Non-Diabetic; untreated or diet-treated, with fasting lipids at initial screening and visit 2 (after 4 week run-in): […] Subjects were males with waist circumference greater than 38″ or females with waist circumference greater than 33″. Data was generated in this second study from 181 subjects. […] Of the 28 subjects that remained in the study in the placebo group, there was a net loss of subjects having LDL pattern A.

healthy male subjects = assay: Phase I multiple ascending dose study, 21 days; LDL particle size by GGE and AIM; type: in vivo, human; settings: for predominant LDL particle size / proportion of small LDL particles: 50, 100 and 200 mg
Description: Thirty-six healthy male subjects were treated with the compound of Formula II at 50, 100, and 200 mg for 21 days. To determine the lipoprotein particle sizes in the subjects before and after administration of the compound, gradient-gel electrophoresis (GGE) and Airborne Ion Mobility (AIM) methods were used.
GGE was performed essentially as described in Krauss and Burke, J Lipid Res. 23:97-104 (1982) and La Belle, et al., J. Lipid Res. 38 690-700 (1997) as follows:
LDL particle diameters were determined by nondenaturing 2-14% polyacrylamide gradient gel electrophoresis in 0.09 M Tris/0.08 M borate buffer (pH 8.3), 3 mM EDTA at 8-10° C. Samples (whole plasma) were electrophoresed at 40 V for 15 min, then 80 V for 15 min, and then at 125 V for 24 h to allow all particles to run to their size exclusion limits. Gels were stained for protein with Sudan Black and scanned at 555 nm with a Transidyne RFT densitometer. Particle sizes were calculated from a calibration curve using a high molecular weight reference protyin mixture (Pharmacia Biotech., Piscataway, N.J.), 380 Å latex beads (Duke Scientific Corp., Palo Alto, Calif.) and lipoprotein calibrators that are frozen at −80° C. and included on each gel run. Plasma samples, stored at −80° C. and used as controls for gradient gel analysis procedures, were run in duplicate on each gel. Particle size of LDL peaks in the controls were measured within ±2 Å (coefficient of variation, +1%).
AIM was performed essentially as described in Caulfield, et al., Clin. Chem. 54:1307-1316 (2008), generally as follows:
Serum samples or controls were briefly mixed by vortex mixing, then 5 μl of sample or control was mixed with 20 μl of an albumin removal reagent [7.5 g/L Reactive green 19 dextran (RGD), Sigma-Aldrich; 2.5 g/L dextran sulfate, Sigma-Aldrich; and 0.5 g/L EDTA, Spectrum Chemicals] and incubated on ice for 15 minutes. After incubation, the sample mixture was overlaid on 200 μl deuterium oxide (Medical Isotopes) in a 42.2 ultracentrifuge tube (Beckman Coulter). The samples were ultracentrifuged at 10° C. for 135 min at 223 000 g (42 000 rpm), and then the top 85 μl (i.e., the lipid fraction) of the sample was removed. The samples were diluted 1:800 for HDL analysis using 25 mmol/L ammonium acetate, 0.5 mmol/L ammonium hydroxide, pH 7.4. For LDL analysis, samples were diluted 1:200 with the same diluent containing 5 μg/mL dextran sulfate to help prevent LDL particles from sticking to the capillary surfaces. Final dilutions were made in deep-well 96-well plates and placed in a Leap HTLC Pal autosampler (Eksigent) with the cooled stack maintained at 6° C.
The autosampler was connected to the electrospray generator (Model 3480; TSI) via methyl-deactivated silica capillary (50 μm i.d.; SGE). Flow was introduced by nano-LC pumps (Eksigent) running a mobile phase of 25 mmol/L ammonium acetate, 0.5 mmol/L ammonium hydroxide, pH 7.4. By means of a capillary metal union (Upchurch Scientific), an autosampler injected 10 μl sample at 6 μl/min into a transfer capillary (methyl-deactivated, SGE, 50 μm, 33 cm long). High voltage (2.1 kV) was applied to the metal capillary union located 33 cm upstream of the electrospray unit. The electrospray Taylor cone was monitored visually and amperometrically to ensure stability. After the sample had filled the capillary and reached the electrospray chamber, the flow was decreased to 200 nL/min and the data recording process was started. The gas (containing approximately 5% CO2) flowing into the electrospray chamber was regulated at 1.6 L/min. The electrosprayed particles passed through a particle-charge neutralizing chamber and then entered the differential mobility analyzer (DMA). Se, e.g., U.S. Pat. No. 7,259,018. Scan time was 2 min and covered a particle range of 17.2 to 542.0 Å. […]

human subjects [1] = assay: Effect on cholesterol synthesis in human subjects after 21 days; type: in vivo
Description: A series of experiments were performed to determine the effect of Compound II on cholesterol synthesis. Compound II was administered to human subjects and the effect on cholesterol ester, acyl-coenzyme A:cholesterol acyltransferase (ACAT) and Lecithin-cholesterol acyltransferase (LACAT) was determined after 21 days. […] The effect of treatment appeared similar between ACAT- and LCAT-derived cholesterol esters, indicating a reduction in cholesterol substrate.

C57BL/6 mice = assay: Intestinal cholesterol absorption by fecal dual isotope ratio method; type: in vivo
Description: This study was designed to examine the effect of Compound II on intestinal cholesterol absorption in mice using the fecal dual isotope ratio method. Eight-week-old male C57BL/6 mice were fed standard mouse chow (control) with no added cholesterol (Harlan Teklad diet T.8604) ad libitum. Mice were randomized into five groups: 1) control, water gavaged daily; 2) compound II gavaged daily (in water) at a dose of 3 mg/kg; 3) compound II gavaged daily (in water) at a dose of 10 mg/kg; 4) ezetimibe gavaged daily (in corn oil) at a dose of 5 mg/kg; 5) compound II fed daily as diet admix at a dose of approximately 15 mg/kg. Mice were housed individually and monitored daily for food consumption and body weight. Following eight days of feeding/drug administration, (and 1 hour following gavage of drug), nonfasted, unanesthetized animals were bled and plasma was isolated and flash-frozen at −80° C. for shipment and measurement of concentrations of Compound II and its metabolites. The following day (day 9), mice were gavaged with drug or control. One hour later, each mouse was gavaged with MCT oil containing [^14C]cholesterol and [^3H]sitostanol. Mice were housed individually in metabolic cages and ad libitum feeding and daily gavage of each drug was continued. Feces were collected daily from each animal for a period of 4 days. For each individual mouse, the 4-day feces were pooled, dried, saponified, extracted and counted.
Intestinal cholesterol absorption in age- and gender-matched C57BL/6 mice was determined by the fecal dual isotope ratio method. […] See, FIG. 10. […] Statistical analysis between groups was assessed by unpaired Student's t-test. Statistical significance was defined as a two-tailed probability of less than 0.05.

human subjects [2] = assay: Absorption of phytosterols (markers of cholesterol absorption) in human subjects, day 21; type: in vivo; settings: oral daily dose, day 21, FIG. 11
Description: In another experiment, human subjects received an oral dose of Compound II at day 1 and daily thereafter and the effect of the drug was assessed on day 21. Phytosterols are poorly absorbed from diet, but are absorbed proportionally with dietary cholesterol and thus serve as good markers of cholesterol absorption.

[3] = Atorvastatin 20 mg, Week 0 (before treatment)
[4] = 21 days, listed as compound of Formula II
[5] = phase I multiple ascending doses samples, FIG. 1
[6] = MBX-8025 50 mg, Week 0 (before treatment)
[7] = MBX-8025 100 mg, Week 0 (before treatment)

Structure (SMILES): CC(C)c1c(C(=O)Nc2ccccc2)c(-c2ccccc2)c(-c2ccc(F)cc2)n1CC[C@@H](O)C[C@@H](O)CC(=O)O [Atorvastatin, reference compound]
- number of subjects having LDL Pattern A (overweight subjects; [3]): 9
- number of subjects having LDL Pattern B (overweight subjects; [3]): 15
- number of subjects having LDL Pattern I (overweight subjects; [3]): 5
- number of subjects having LDL Pattern A (overweight subjects; Atorvastatin 20 mg, Week 4): 12
- number of subjects having LDL Pattern B (overweight subjects; Atorvastatin 20 mg, Week 4): 10
- number of subjects having LDL Pattern I (overweight subjects; Atorvastatin 20 mg, Week 4): 6
- number of subjects having LDL Pattern A (overweight subjects; Atorvastatin 20 mg, Week 8): 13
- number of subjects having LDL Pattern B (overweight subjects; Atorvastatin 20 mg, Week 8): 13
- number of subjects having LDL Pattern I (overweight subjects; Atorvastatin 20 mg, Week 8): 3
- HDL levels (overweight subjects; FIG. 6): no effect

Structure (SMILES): CCOC(COc1ccc(C(F)(F)F)cc1)CSc1ccc(OCC(=O)O)c(C)c1 (centres unmarked) [Compound II]
- shift of LDL subclass pattern (healthy male subjects; 50, 100 and 200 mg dosage, day 21 vs day 1, GGE): from LDL Pattern B or I to LDL Pattern A
- predominant LDL particle size (healthy male subjects; 21 days, listed as compound II): increased
- proportion of small LDL particles (healthy male subjects; 21 days, listed as compound II): lowered
- predominant LDL particle size (healthy male subjects; [4]): effectively increased
- proportion of small LDL particles (healthy male subjects; [4]): decreasing the amount of smaller LDL particles
- predominant LDL particle size (healthy male subjects; 21 days, listed as drawing 12): effective in improving
- VLDL particle size (healthy male subjects; 21 days): did not affect
- LDL particle distributions (healthy male subjects; 21 days, by dose): did affect LDL particle distributions in dose dependent fashion
- Apolipoprotein B (healthy male subjects; [5]): significantly lowered
- LDL-cholesterol (healthy male subjects; [5]): significantly lowered
- LDL pattern results compared with control group treated with Atorvastatin (overweight subjects; 50 mg and 100 mg): superior
- number of subjects having pattern A (in words) (overweight subjects; 100 mg): increase
- number of subjects having pattern B (in words) (overweight subjects; 100 mg): large decrease
- Apo B-100 (overweight subjects; FIG. 6): reduced
- HDL levels (overweight subjects; FIG. 6): increased
- LDL (overweight subjects; FIG. 6): reduced
- total cholesterol (overweight subjects; FIG. 6): reduced
- triglycerides (overweight subjects; FIG. 6): reduced
- percentage of individuals having LDL pattern A over time (overweight subjects; FIG. 7): went up dramatically
- percentage of individuals having LDL pattern B over time (overweight subjects; FIG. 8): went down dramatically
- number of subjects having LDL Pattern A (overweight subjects; [6]): 8
- number of subjects having LDL Pattern B (overweight subjects; [6]): 13
- number of subjects having LDL Pattern I (overweight subjects; [6]): 7
- number of subjects having LDL Pattern A (overweight subjects; MBX-8025 50 mg, Week 4): 24
- number of subjects having LDL Pattern B (overweight subjects; MBX-8025 50 mg, Week 4): 3
- number of subjects having LDL Pattern I (overweight subjects; MBX-8025 50 mg, Week 4): 0
- number of subjects having LDL Pattern A (overweight subjects; MBX-8025 50 mg, Week 8): 25
- number of subjects having LDL Pattern B (overweight subjects; MBX-8025 50 mg, Week 8): 2
- number of subjects having LDL Pattern I (overweight subjects; MBX-8025 50 mg, Week 8): 2
- number of subjects having LDL Pattern A (overweight subjects; [7]): 6
- number of subjects having LDL Pattern B (overweight subjects; [7]): 20
- number of subjects having LDL Pattern I (overweight subjects; [7]): 7
- number of subjects having LDL Pattern A (overweight subjects; MBX-8025 100 mg, Week 4): 25
- number of subjects having LDL Pattern B (overweight subjects; MBX-8025 100 mg, Week 4): 1
- number of subjects having LDL Pattern I (overweight subjects; MBX-8025 100 mg, Week 4): 4
- number of subjects having LDL Pattern A (overweight subjects; MBX-8025 100 mg, Week 8): 25
- number of subjects having LDL Pattern B (overweight subjects; MBX-8025 100 mg, Week 8): 2
- number of subjects having LDL Pattern I (overweight subjects; MBX-8025 100 mg, Week 8): 2
- Lanosterol (cholesterol synthesis intermediate) in blood (human subjects [1]; FIG. 9): decreased in a dose-dependent fashion
- desmosterol (cholesterol synthesis intermediate) in blood (human subjects [1]; FIG. 9): decreased in a dose-dependent fashion
- lathosterol (cholesterol synthesis intermediate) in blood (human subjects [1]; FIG. 9): decreased in a dose-dependent fashion
- cholesterol concentrations (ACAT- and LCAT-derived cholesterol esters) (human subjects [1]; after 21 days): decreased cholesterol concentrations in a dose-dependent fashion
- reduction in cholesterol absorption versus control (printed as negative change) (C57BL/6 mice; admix to diet, approximate dose 15 mg/kg/d, p<0.0006): −45%
- change in cholesterol absorption versus control (C57BL/6 mice; gavage, 3 mg/kg/d, no significant change): −8%
- reduction in cholesterol absorption versus control (C57BL/6 mice; gavage, 10 mg/kg/d, significant): 29.4%
- Stigmasterol (human subjects [2]): not significantly affected
- campesterol (human subjects [2]): significantly decreased
- β-sitosterol (human subjects [2]): significantly decreased

Structure (SMILES): O=C1[C@H](CC[C@H](O)c2ccc(F)cc2)[C@@H](c2ccc(O)cc2)N1c1ccc(F)cc1 [ezetimibe, reference compound]
- reduction in cholesterol absorption (C57BL/6 mice; gavage in corn oil, 5 mg/kg/d, positive control, p<0.0000005): 56.4%
